Measured values: PubChem BioAssay AID1963853 (Molecular Pharmacology Branch, DTP, NCI, 2024)

Tested on: 266295-075-R-J1-PDC spheroid viability
Assay: Anticancer human tumor 266295-075-R-J1-PDC patient-derived head and neck squamous carcinoma cell line growth inhibition [POLQ]
Details: spheroids with HUVEC and MSC; for IC50: curve of first compound; for viability, T/C: stronger effect = lower value
In short: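 Growth inhibition in 3D: complex spheroids (tumor PDC, HUVEC, MSC) treated with POLQ inhibitor combinations; where Cmax unknown, highest tested concentration 10 microM, except SN-38 at 1 microM.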

[1] = second compound 0.0316 µM, first compound 0.0316 µM
[2] = second compound 0.0316 µM, first compound 0.1 µM
[3] = second compound 0.0316 µM, first compound 0.316 µM
[4] = second compound 0.0316 µM, first compound 1 µM
[5] = second compound 0.0316 µM, first compound 3.16 µM
[6] = second compound 0.0316 µM, first compound 10 µM
[7] = second compound 0.1 µM, first compound 0.0316 µM
[8] = second compound 0.1 µM, first compound 0.1 µM
[9] = second compound 0.1 µM, first compound 0.316 µM
[10] = second compound 0.1 µM, first compound 1 µM
[11] = second compound 0.1 µM, first compound 3.16 µM
[12] = second compound 0.1 µM, first compound 10 µM
[13] = second compound 0.316 µM, first compound 0.0316 µM
[14] = second compound 0.316 µM, first compound 0.1 µM
[15] = second compound 0.316 µM, first compound 0.316 µM
[16] = second compound 0.316 µM, first compound 1 µM
[17] = second compound 0.316 µM, first compound 3.16 µM
[18] = second compound 0.316 µM, first compound 10 µM
[19] = second compound 1 µM, first compound 0.0316 µM
[20] = second compound 1 µM, first compound 0.1 µM
[21] = second compound 1 µM, first compound 0.316 µM
[22] = second compound 1 µM, first compound 1 µM
[23] = second compound 1 µM, first compound 3.16 µM
[24] = second compound 1 µM, first compound 10 µM
[25] = second compound 3.16 µM, first compound 0.0316 µM
[26] = second compound 3.16 µM, first compound 0.1 µM
[27] = second compound 3.16 µM, first compound 0.316 µM
[28] = second compound 3.16 µM, first compound 1 µM
[29] = second compound 3.16 µM, first compound 3.16 µM
[30] = second compound 3.16 µM, first compound 10 µM
[31] = second compound 10 µM, first compound 0.0316 µM
[32] = second compound 10 µM, first compound 0.1 µM
[33] = second compound 10 µM, first compound 0.316 µM
[34] = second compound 10 µM, first compound 1 µM
[35] = second compound 10 µM, first compound 3.16 µM
[36] = second compound 10 µM, first compound 10 µM
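Also: spheroids exposed to compounds for seven days before readout.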

`C#Cc1c(F)ccc2cc(O)cc(-c3ncc4c(N5CC6CCC(C5)N6)nc(OCC56CCCN5CC(F)C6)nc4c3F)c12` (centres undefined) + COC1C(OC(N)=O)C(O)C(Oc2ccc3c(O)c(NC(=O)c4ccc(O)c(CC=C(C)C)c4)c(=O)oc3c2C)OC1(C)C was tested, and the IC50 (second compound 0.0316 µM) was greater than 10000 nM, the IC50 (second compound 0.1 µM) was greater than 10000 nM and the IC50 (second compound 0.316 µM) was greater than 10000 nM. It also gave an IC50 (second compound 1 µM) greater than 10000 nM, an IC50 (second compound 3.16 µM) greater than 10000 nM and an IC50 (second compound 10 µM) greater than 10000 nM. The viability, T/C [1] was 97.4%, the viability, T/C [2] was 79.1% and the viability, T/C [3] was 69.6%. For the same compound, the viability, T/C [4] was 65.3%, the viability, T/C [5] was 60.8% and the viability, T/C [6] was 58.2%. For the same compound, the viability, T/C [7] was 94.9%, the viability, T/C [8] was 84.9% and the viability, T/C [9] was 74.9%. The viability, T/C [10] was 60.1%, the viability, T/C [11] was 71.6% and the viability, T/C [12] was 54.2%. For the same compound, the viability, T/C [13] was 100%, the viability, T/C [14] was 88.5% and the viability, T/C [15] was 87.8%. The viability, T/C [16] was 68%, the viability, T/C [17] was 67.3% and the viability, T/C [18] was 60.3%. The viability, T/C [19] was 91.3%, the viability, T/C [20] was 78.1% and the viability, T/C [21] was 80.1%. For the same compound, the viability, T/C [22] was 87%, the viability, T/C [23] was 65.2% and the viability, T/C [24] was 56.9%. For the same compound, the viability, T/C [25] was 94.6%, the viability, T/C [26] was 77.8% and the viability, T/C [27] was 79.5%. For the same compound, the viability, T/C [28] was 67.7%, the viability, T/C [29] was 60.4% and the viability, T/C [30] was 54.3%. For the same compound, the viability, T/C [31] was 96.9%, the viability, T/C [32] was 91.9% and the viability, T/C [33] was 79.1%. For the same compound, the viability, T/C [34] was 64%, the viability, T/C [35] was 70.2% and the viability, T/C [36] was 55.7%.
`CC1COCCN1c1cc(C2(O)CC3CCC(C2)O3)c2cnn(-c3ccn[nH]3)c2n1` (centres undefined) + COC1C(OC(N)=O)C(O)C(Oc2ccc3c(O)c(NC(=O)c4ccc(O)c(CC=C(C)C)c4)c(=O)oc3c2C)OC1(C)C was tested, and the IC50 (second compound 0.0316 µM) was 1130 nM, the IC50 (second compound 0.1 µM) was 1290 nM and the IC50 (second compound 0.316 µM) was 1050 nM. The IC50 (second compound 1 µM) was 921 nM, the IC50 (second compound 3.16 µM) was 898 nM and the IC50 (second compound 10 µM) was 903 nM. The viability, T/C [1] was 84.7%, the viability, T/C [2] was 79.8% and the viability, T/C [3] was 65.6%. The viability, T/C [4] was 52.8%, the viability, T/C [5] was 36.9% and the viability, T/C [6] was 29.8%. It also gave a viability, T/C [7] of 92%, a viability, T/C [8] of 80.8% and a viability, T/C [9] of 62.7%. It also gave a viability, T/C [10] of 51.5%, a viability, T/C [11] of 44.6% and a viability, T/C [12] of 26.8%. The viability, T/C [13] was 103%, the viability, T/C [14] was 69.5% and the viability, T/C [15] was 64.8%. For the same compound, the viability, T/C [16] was 56.1%, the viability, T/C [17] was 43.2% and the viability, T/C [18] was 30.4%. For the same compound, the viability, T/C [19] was 87.2%, the viability, T/C [20] was 73.3% and the viability, T/C [21] was 75.3%. The viability, T/C [22] was 46.8%, the viability, T/C [23] was 41.7% and the viability, T/C [24] was 34.4%. The viability, T/C [25] was 84.2%, the viability, T/C [26] was 74.7% and the viability, T/C [27] was 57%. The viability, T/C [28] was 48.2%, the viability, T/C [29] was 42.9% and the viability, T/C [30] was 31%. For the same compound, the viability, T/C [31] was 81.2%, the viability, T/C [32] was 81.9% and the viability, T/C [33] was 63.2%. It also gave a viability, T/C [34] of 49.4%, a viability, T/C [35] of 39.3% and a viability, T/C [36] of 34.2%.
